What is called IC95 is the concentration at which the effect reaches the 95% level. A lower IC95 goes with an effect from little substance. The term IC50 denotes the concentration that inhibits the measured activity by half. By bioavailability is commonly meant dose-corrected exposure relative to a reference, in per cent. A word on the Cmax: it is the highest concentration seen after dosing.

Each structure is given as a SMILES string.

Data on seven compounds can be found in ChEMBL document CHEMBL1128091, “Ly316340: A potent HIV-1 protease inhibitor containing a high affinity octahydrothienopyridine hydroxyethylamine isostere” (Bioorg Med Chem Lett, 1995).

Series [1] relates to CEM-SS. The experiment in a line: (§1) Inhibitory concentration required for antiviral activity against HXB-2 infected CEM-SS cells. It counts as functional. To be noted: Homo sapiens.
Series [2] has as its system CEM-SS. The description is as §1. The conditions noted are these: Homo sapiens. It counts as functional, cell-based.
For series [3], the target named is Human immunodeficiency virus type 1 protease (Human immunodeficiency virus 1, UniProt Q72874). The series is described as follows: Inhibitory concentration required against HIV-1 protease.
The nature of series [4]: Bioavailability was evaluated in rats at a dose of 20 mg/kg, under fed state. It counts as ADME, organism-based. The conditions noted are these: rat, in vivo.
Series [5] in a line: Bioavailability was evaluated in rats at a dose of 20 mg/kg, under fasting state. The format is ADME, organism-based. To be noted: rat, in vivo.
Series [6] in a line: (§2) Cmax value was evaluated in rats at a dose of 20 mg/kg. It counts as ADME, organism-based. On the set-up: dose 20 mg/kg. The conditions noted are these: rat, in vivo.
A further series has as its system Rattus norvegicus. The series is described as §2. The conditions noted are these: in vivo. It counts as ADME, organism-based. On the set-up: dose 20 mg/kg.

The compound `CC(C)(C)NC(=O)[C@@H]1C[C@@H]2CCCC[C@@H]2CN1C[C@@H](O)[C@H](Cc1ccccc1)NC(=O)[C@H](CC(N)=O)NC(=O)c1ccc2ccccc2n1` displayed a concentration for an effect of 95% (IC95) in the series on CEM-SS [1] of 0.021 µM. Moreover, the IC50 with CEM-SS [2] stood at 0.0066 µM.

The compound `CC(C)(C)NC(=O)[C@@H]1C[C@@H]2CCCC[C@@H]2CN1C[C@@H](O)[C@H](Cc1ccccc1)NC(=O)OCc1ccccc1` showed an IC50 in series [3] of 0.127 µM. This lies in the sub-micromolar range.

In the case of `CS(=O)(=O)O.Cc1c(O)cccc1C(=O)N[C@@H](CSc1ccccc1)[C@H](O)CN1C[C@H]2CCS[C@H]2C[C@H]1C(=O)NC(C)(C)C`, the bioavailability in series [4] came to 19%; in series [5] it was 22%. In addition, the results for the Cmax (in series [6]; with Rattus norvegicus) were 1400 nM and 1000 nM, respectively.

Regarding `Cc1c(O)cccc1C(=O)N[C@@H](Cc1ccccc1)[C@H](O)CN1C[C@H]2CCS[C@H]2C[C@H]1C(=O)NC(C)(C)C`, in the series with CEM-SS [1], the IC95 is 1.36 µM. Further, the half-inhibitory concentration (IC50) is 0.0005 µM in series [3] and 0.024 µM in the series with CEM-SS [2].

Regarding `Cc1c(O)cccc1C(=O)N[C@@H](CSc1ccccc1)[C@H](O)CN1C[C@H]2CCS[C@H]2C[C@H]1C(=O)NC(C)(C)C`, the 95% effect level in the series with CEM-SS [1] (IC95) was put at 0.018 µM. The IC50 in series [3] was found to be 0.0003 µM; with CEM-SS [2] it was 0.0051 µM.

`Cc1c(O)cccc1C(=O)N[C@@H](Cc1ccccc1)[C@H](O)CN1C[C@H]2CCCC[C@H]2C[C@H]1C(=O)NC(C)(C)C`: the 95% effect level in the series with CEM-SS [1] (IC95) was put at 0.135 µM. Besides, the IC50 in series [3] is 0.013 µM; in the series with CEM-SS [2] it was 0.033 µM.

In series [3], `CC(C)(C)NC(=O)[C@@H]1C[C@@H]2SCC[C@@H]2CN1C[C@@H](O)[C@H](Cc1ccccc1)NC(=O)OCc1ccccc1` displayed an IC50 of 0.0066 µM.
